According to paper PMC4569258:
Entries after “also recorded” stand apart in the source; their conditions may differ. Read-outs that look alike come from different tables or passages of the source. Values belong to the compound of their own block, whether it stands above or below them.

Columns and labels:
[1] = MTT cytotoxicity test in AZ-AHR cells; format: cell-based; conditions: human
Description: (§1) Prior to gene reporter assays, we examined the cytotoxicity of tested compounds in AZ-AHR, AZ-GR and LS180 cell lines. For this purpose, the cells were incubated for 24 h with individual enantiomers of atorvastatin, fluvastatin and rosuvastatin at concentrations ranging from 100 pM to 100 μM. The vehicle was DMSO (0.1% v/v). After the treatment, a conventional MTT test was performed and the values of IC50 were calculated.
(§2) Fig 2 Cytotoxicity of statin enantiomers in human cancer cell lines. […] After the treatment, a conventional MTT test was performed and absorbance was measured at 540 nm. Treatments were performed in triplicates.

[2] = target: T1, aryl hydrocarbon receptor (AhR) (Homo sapiens, UniProt P35869); test: cell-based
T1 sequence (P35869 11-848): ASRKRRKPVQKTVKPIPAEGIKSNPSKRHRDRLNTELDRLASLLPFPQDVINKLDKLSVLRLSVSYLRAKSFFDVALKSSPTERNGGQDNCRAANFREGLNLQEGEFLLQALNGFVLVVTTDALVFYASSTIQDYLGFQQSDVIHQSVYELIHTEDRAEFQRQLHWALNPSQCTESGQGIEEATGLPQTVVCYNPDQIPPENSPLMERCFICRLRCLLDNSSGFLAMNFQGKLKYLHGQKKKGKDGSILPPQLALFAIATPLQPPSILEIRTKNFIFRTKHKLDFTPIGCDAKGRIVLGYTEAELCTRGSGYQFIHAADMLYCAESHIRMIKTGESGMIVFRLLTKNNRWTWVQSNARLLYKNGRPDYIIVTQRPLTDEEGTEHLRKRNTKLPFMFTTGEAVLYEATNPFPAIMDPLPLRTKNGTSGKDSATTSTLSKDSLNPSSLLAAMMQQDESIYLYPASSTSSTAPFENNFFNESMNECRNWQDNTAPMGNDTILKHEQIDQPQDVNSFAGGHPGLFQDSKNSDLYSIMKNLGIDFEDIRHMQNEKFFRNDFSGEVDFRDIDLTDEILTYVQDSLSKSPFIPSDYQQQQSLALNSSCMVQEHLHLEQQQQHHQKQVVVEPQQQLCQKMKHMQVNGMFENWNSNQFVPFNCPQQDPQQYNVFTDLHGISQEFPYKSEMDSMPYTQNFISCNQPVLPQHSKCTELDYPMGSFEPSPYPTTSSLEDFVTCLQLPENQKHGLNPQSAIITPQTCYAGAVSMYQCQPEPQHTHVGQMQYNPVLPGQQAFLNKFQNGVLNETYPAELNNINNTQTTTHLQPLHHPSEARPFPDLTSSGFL
Description: (§5) A stably transfected gene reporter cell line AZ-AHR, derived from human hepatoma HepG2 cells transfected with a construct containing several AhR binding sites upstream of a luciferase reporter gene, was used for assessment of AhR transcriptional activity [20].
(§6) Transcriptional activity of AhR was assessed in human gene reporter cell line AZ-AHR incubated for 24 h with tested compounds.
(§7) AZ-AHR cells were seeded in 96-well plates and stabilized for 16 h and then incubated for 24 h with enantiopure forms of atorvastatin, rosuvastatin and fluvastatin in concentration ranging from 10^−10 M to 10^−4 M in the absence (agonist mode–upper panels) or presence (antagonist mode–lower panels) of dioxin (TCDD; 5 nM). The vehicle was DMSO (0.1% v/v). After the treatments, cells were lysed and luciferase activity was measured. Treatments were performed in triplicates. Data are expressed as a fold induction of luciferase activity over control cells (agonist mode) or as a percentage of maximal activation attained by TCDD (antagonist mode). The values of EC50 and IC50 from n independent cell passages were calculated where appropriate and the average values are indicated in plots. Representative gene reporter assays are shown.

[3] = target: T1, aryl hydrocarbon receptor (AhR); test: AhR gene reporter assay in AZ-AHR cells; conditions: for IC50: AhR antagonist IC50, antagonist mode, in presence of TCDD 5 nM
Description: as §5, §6, §7

[4] = target: T2, pregnane X receptor (PXR) (Homo sapiens, UniProt O75469); conditions: for effect on rifampicin-inducible PXR transcriptional activity, in words: antagonist mode, RIF 10 μM, 24 h; for rifampicin-inducible luciferase activity, minimum of U-shaped curve: with RIF 10 μM, concentrations range 10^−8 M-10^−6 M
T2 sequence (O75469 1-434): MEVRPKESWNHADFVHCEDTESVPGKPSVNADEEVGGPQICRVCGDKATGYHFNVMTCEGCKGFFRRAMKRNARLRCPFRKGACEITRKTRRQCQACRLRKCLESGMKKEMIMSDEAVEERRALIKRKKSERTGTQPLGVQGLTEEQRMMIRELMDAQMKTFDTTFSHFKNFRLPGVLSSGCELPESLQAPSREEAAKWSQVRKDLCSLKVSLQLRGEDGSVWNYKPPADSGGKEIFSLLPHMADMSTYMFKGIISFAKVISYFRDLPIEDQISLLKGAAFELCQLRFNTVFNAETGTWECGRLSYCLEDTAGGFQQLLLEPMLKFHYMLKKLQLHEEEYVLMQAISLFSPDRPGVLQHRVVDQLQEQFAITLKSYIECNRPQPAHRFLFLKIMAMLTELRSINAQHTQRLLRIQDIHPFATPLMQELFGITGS

[5] = MTT cytotoxicity test in LS180 cells; format: cell-based; conditions: human, LS180 colon adenocarcinoma cells
Description: as §1, §2

[6] = MTT cytotoxicity test in AZ-GR cells; format: cell-based; conditions: human, AZ-GR cells (HeLa-derived GR luciferase reporter cell line)
Description: as §1, §2

[7] = test system: CYP3A4 protein; conditions: HH59, HH61, HH63; 48 h
Description: (§8) Total protein extracts were prepared from cells cultured on 6-well plates. Cells were washed twice with ice-cold PBS and scraped into 1 ml of PBS. The suspension was centrifuged (4500 rpm/5 min/4°C) and the pellet was resuspended in 150 μl of ice-cold lysis buffer (150 mM NaCl; 10 mM Tris pH 7.2; 0.1% (w/v) SDS; anti-protease cocktail, 1% (v/v) Triton X-100; anti-phosphatase cocktail, 1% (v/v) sodium deoxycholate; 5 mM EDTA). The mixture was vortexed and incubated for 10 min on ice and then centrifuged (15000 rpm/13 min/4°C). Supernatant was collected and the protein content was determined by the Bradford reagent.
All reagents used for running the simple western by Sally Sue ^TM were obtained from ProteinSimple (San Jose, California) and prepared according to manufacturer’s recommendations (http://www.proteinsimple.com/sally_sue.html). […] Antibody diluent, goat anti-rabbit secondary antibody, and goat anti-mouse secondary antibody were purchased from ProteinSimple. The capillaries, containing a proprietary UV-activated chemical linked reagent and 384-well plates were obtained from ProteinSimple. […] The resulting chemiluminescent signal was detected and quantified by the Compass Software version 2.6.5.0 (ProteinSimple). For quantitative data analysis, the CYPs signals were normalized to β-actin as a loading control.

[8] = test system: CYP2A6 mRNA; conditions: for induction of CYP2A6 mRNA: 10 μM
[9] = target: T3, glucocorticoid receptor (GR) (Homo sapiens, UniProt P04150); test: GR gene reporter assay in AZ-GR cells; format: cell-based; conditions: for effect on dexamethasone-inducible transcriptional activity of GR, in words / IC50: antagonist mode; for effect on dexamethasone-inducible transcriptional activity of GR, in words: DEX 100 nM; for IC50: in presence of DEX 100 nM
T3 sequence (P04150 1-777): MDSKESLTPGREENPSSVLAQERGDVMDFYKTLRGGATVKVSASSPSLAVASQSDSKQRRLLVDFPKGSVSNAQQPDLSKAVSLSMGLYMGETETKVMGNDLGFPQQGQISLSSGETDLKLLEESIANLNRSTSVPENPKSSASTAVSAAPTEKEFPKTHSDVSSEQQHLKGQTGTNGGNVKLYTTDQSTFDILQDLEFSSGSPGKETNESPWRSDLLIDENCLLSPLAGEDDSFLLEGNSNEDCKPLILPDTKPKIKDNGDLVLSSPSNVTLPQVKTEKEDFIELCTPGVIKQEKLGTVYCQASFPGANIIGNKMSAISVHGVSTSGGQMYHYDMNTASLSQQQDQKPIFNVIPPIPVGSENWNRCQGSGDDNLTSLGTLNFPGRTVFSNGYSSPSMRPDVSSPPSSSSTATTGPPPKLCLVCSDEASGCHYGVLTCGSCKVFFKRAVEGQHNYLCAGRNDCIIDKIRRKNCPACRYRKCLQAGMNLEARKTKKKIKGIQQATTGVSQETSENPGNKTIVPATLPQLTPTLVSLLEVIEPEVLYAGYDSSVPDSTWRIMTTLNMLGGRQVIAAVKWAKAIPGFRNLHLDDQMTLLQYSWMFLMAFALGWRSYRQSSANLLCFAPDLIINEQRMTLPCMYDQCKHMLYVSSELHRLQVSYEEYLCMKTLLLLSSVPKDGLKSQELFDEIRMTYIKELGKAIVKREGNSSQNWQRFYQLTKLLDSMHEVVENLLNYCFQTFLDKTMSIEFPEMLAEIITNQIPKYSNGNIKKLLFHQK
Description: Transcriptional activity of GR was assessed in human gene reporter cell line AZ-GR incubated for 24 h with tested compounds. […] The vehicle was DMSO (0.1% v/v). […] Treatments were performed in triplicates.

[10] = test system: CYP2A6 protein; conditions: 10 μM
Description: as §8
(§9) All reagents used for running the simple western by Sally Sue ^TM were obtained from ProteinSimple (San Jose, California) and prepared according to manufacturer’s recommendations (http://www.proteinsimple.com/sally_sue.html). […] Antibody diluent, goat anti-rabbit secondary antibody, and goat anti-mouse secondary antibody were purchased from ProteinSimple. The capillaries, containing a proprietary UV-activated chemical linked reagent and 384-well plates were obtained from ProteinSimple. All samples and reagents were prepared according to the recommended ProteinSimple manual. Target proteins were identified using primary antibodies and immunoprobed using a horseradish peroxidase-conjugated secondary antibody and chemiluminescent substrate. The resulting chemiluminescent signal was detected and quantified by the Compass Software version 2.6.5.0 (ProteinSimple). For quantitative data analysis, the CYPs signals were normalized to β-actin as a loading control.

[11] = test system: CYP2B6 protein; conditions: 10 μM
Description: as §8, §9

[12] = test system: CYP2B6 mRNA; conditions: 10 μM
[13] = test system: CYP1A1 protein; test: CYP1A1 protein (Simple Western) in primary human hepatocytes; format: cell-based; conditions: 5 nM
Description: (§3) Cells were cultured in serum-free medium.

[14] = test system: CYP1A2 mRNA; test: CYP1A2 mRNA (qRT-PCR) in primary human hepatocytes; format: cell-based; conditions: 5 nM
Description: as §3
(§4) Measurements were performed in triplicates.

[15] = test system: CYP1A2 protein; test: CYP1A2 protein (Simple Western) in primary human hepatocytes; format: cell-based; conditions: 5 nM
Description: as §3

[16] = test system: CYP1A1 mRNA; test: CYP1A1 mRNA (qRT-PCR) in primary human hepatocytes; format: cell-based; conditions: 5 nM
Description: as §3, §4

Compound: CC(C)n1c(C=CC(O)CC(O)CC(=O)O)c(-c2ccc(F)cc2)c2ccccc21 (stereo not drawn) [3S5S-fluvastatin]
IC50 at 24 h [1]: > 100 µM | EC50 [2]: 14.7 ± 0.9 µM | IC50 ([3]; 24 h): > 100 µM | effect on AhR-dependent luciferase activity (agonist mode), in words ([3]; agonist mode, 24 h): slightly increased luciferase activity | efficacy: average induction of PXR luciferase activity ([4]; 100 μM concentration, agonist mode): around 3 fold | IC50 at 24 h [5]: > 100 µM | IC50 at 24 h [6]: > 100 µM

Compound: CC(C)c1nc(N(C)S(C)(=O)=O)nc(-c2ccc(F)cc2)c1C=CC(O)CC(O)CC(=O)O (stereo not drawn) [3R5S-rosuvastatin]
induction of CYP3A4 protein, in words [7]: significant induction of CYP3A4 protein | EC50 [2]: > 100 µM | IC50 ([3]; 24 h): 53.5 ± 60.4 µM | effect on TCDD-inducible transcriptional activity of AhR, in words ([3]; antagonist mode, TCDD 5 nM, 24 h): dose-dependently inhibited | effect on rifampicin-inducible PXR transcriptional activity, in words [4]: inverse U-shaped curve | induction of CYP2A6 mRNA, in words ([8]; HH59, HH61, HH63, 24 h, 1, 10, 30 μM): weak increase of CYP2A6 mRNA in culture HH61; also recorded: induced CYP2A6 mRNA | effect on dexamethasone-inducible transcriptional activity of GR, in words ([9]; 24 h): decreased | IC50 ([9]; 24 h): 89.7 ± 12.6 µM

induction of CYP2A6 protein ([10]; culture HH59, 48 h): 4.8 fold | induction of CYP2A6 protein ([10]; culture HH61, 48 h): 7.3 fold | induction of CYP2A6 protein ([10]; culture HH63, 48 h): 2.3 fold | induction of CYP2B6 protein ([11]; culture HH59, 48 h): 8.4 fold | induction of CYP2B6 protein ([11]; culture HH61, 48 h): 5.9 fold | induction of CYP2B6 protein ([11]; culture HH63, 48 h): 7.7 fold | induction of CYP2B6 mRNA ([12]; culture HH59, 24 h): 5.8 fold | induction of CYP2B6 mRNA ([12]; culture HH61, 24 h): 16 fold | induction of CYP2B6 mRNA ([12]; culture HH63, 24 h): 6.9 fold | induction of CYP2A6 mRNA ([8]; culture HH59, 24 h): 2.4 fold | induction of CYP2A6 mRNA ([8]; culture HH61, 24 h): 5.2 fold | induction of CYP2A6 mRNA ([8]; culture HH63, 24 h): 7.1 fold
Compound: CO[C@H]1/C=C/O[C@@]2(C)Oc3c(C)c(O)c4c(O)c(c(/C=N/N5CCN(C)CC5)c(O)c4c3C2=O)NC(=O)/C(C)=C\C=C\[C@H](C)[C@H](O)[C@@H](C)[C@@H](O)[C@@H](C)[C@H](OC(C)=O)[C@@H]1C [rifampicin]

Compound: Clc1cc2c(cc1Cl)Oc1cc(Cl)c(Cl)cc1O2 [TCDD, 2,3,7,8-tetrachlorodibenzo-p-dioxin]
induction of CYP1A1 protein ([13]; culture HH59, 48 h): 35 fold | induction of CYP1A1 protein ([13]; culture HH61, 48 h): 220 fold | induction of CYP1A1 protein ([13]; culture HH63, 48 h): 35 fold | induction of CYP1A2 mRNA ([14]; culture HH59, 24 h): 110 fold | induction of CYP1A2 mRNA ([14]; culture HH61, 24 h): 143 fold | induction of CYP1A2 mRNA ([14]; culture HH63, 24 h): 45 fold | induction of CYP1A2 protein ([15]; culture HH59, 48 h): 19 fold | induction of CYP1A2 protein ([15]; culture HH61, 48 h): 83 fold | induction of CYP1A2 protein ([15]; culture HH63, 48 h): 50 fold | average induction of AhR-dependent luciferase activity ([3]; 5 nM, eight consecutive passages, vs DMSO-treated cells): 1107 fold | induction of CYP1A1 mRNA ([16]; culture HH59, 24 h): 98 fold | induction of CYP1A1 mRNA ([16]; culture HH61, 24 h): 339 fold | induction of CYP1A1 mRNA ([16]; culture HH63, 24 h): 278 fold

effect on dexamethasone-inducible transcriptional activity of GR, in words ([9]; 24 h): decreased
Compound: CC(C)c1c(C(=O)Nc2ccccc2)c(-c2ccccc2)c(-c2ccc(F)cc2)n1CC[C@@H](O)C[C@@H](O)CC(=O)O [3R5R-atorvastatin]

Compound: CC(C)c1nc(N(C)S(C)(=O)=O)nc(-c2ccc(F)cc2)c1C=CC(O)CC(O)CC(=O)O (stereo not drawn) [3R5R-rosuvastatin, 3R5R- rosuvastatin]
IC50 at 24 h [1]: > 100 µM | EC50 [2]: > 100 µM | IC50 ([3]; 24 h): > 100 µM | effect on rifampicin-inducible PXR transcriptional activity, in words [4]: U-shaped curve | rifampicin-inducible luciferase activity, minimum of U-shaped curve [4]: 60 % of rifampicin value | IC50 at 24 h [5]: > 100 µM | IC50 at 24 h [6]: > 100 µM | EC50 ([9]; agonist mode, 24 h): > 100 µM | IC50 ([9]; 24 h): > 100 µM

Compound: CC(C)c1nc(N(C)S(C)(=O)=O)nc(-c2ccc(F)cc2)c1C=CC(O)CC(O)CC(=O)O (stereo not drawn) [3S5S-rosuvastatin]
EC50 [2]: 17.5 ± 0.4 µM | IC50 ([3]; 24 h): > 100 µM | efficacy of AhR activation, % of induction attained by TCDD ([3]; agonist mode): about 0.1% | effect on AhR-dependent luciferase activity (agonist mode), in words ([3]; agonist mode, 24 h): dose-dependently increased luciferase activity | effect on rifampicin-inducible PXR transcriptional activity, in words [4]: U-shaped curve | rifampicin-inducible luciferase activity, minimum of U-shaped curve [4]: 60 % of rifampicin value | IC50 ([9]; 24 h): > 100 µM

Compound: CC(C)c1nc(N(C)S(C)(=O)=O)nc(-c2ccc(F)cc2)c1C=CC(O)CC(O)CC(=O)O (stereo not drawn) [3S5R-rosuvastatin, 3S5R- rosuvastatin]
induction of CYP3A4 protein, in words [7]: significant induction of CYP3A4 protein | EC50 [2]: > 100 µM | IC50 ([3]; 24 h): > 100 µM | effect on rifampicin-inducible PXR transcriptional activity, in words [4]: not influenced | IC50 ([9]; 24 h): > 100 µM

Compound: C[C@@H]1C[C@H]2[C@@H]3CCC4=CC(=O)C=C[C@]4(C)[C@@]3(F)[C@@H](O)C[C@]2(C)[C@@]1(O)C(=O)CO [dexamethasone]
average induction of GR-dependent luciferase activity ([9]; 100 nM, eight consecutive passages, vs DMSO-treated cells): 32 fold
